{"source": "patent US9737542B2", "about": "“Pyrrolotriazine kinase inhibitors” (BRISTOL-MYERS SQUIBB COMPANY, priority 2013, dated 2017)", "data": [{"target": "GST-Xa-hAAK1 (Homo sapiens (Human), UniProt Q2M2I8)", "sequence (Q2M2I8 whole entry)": "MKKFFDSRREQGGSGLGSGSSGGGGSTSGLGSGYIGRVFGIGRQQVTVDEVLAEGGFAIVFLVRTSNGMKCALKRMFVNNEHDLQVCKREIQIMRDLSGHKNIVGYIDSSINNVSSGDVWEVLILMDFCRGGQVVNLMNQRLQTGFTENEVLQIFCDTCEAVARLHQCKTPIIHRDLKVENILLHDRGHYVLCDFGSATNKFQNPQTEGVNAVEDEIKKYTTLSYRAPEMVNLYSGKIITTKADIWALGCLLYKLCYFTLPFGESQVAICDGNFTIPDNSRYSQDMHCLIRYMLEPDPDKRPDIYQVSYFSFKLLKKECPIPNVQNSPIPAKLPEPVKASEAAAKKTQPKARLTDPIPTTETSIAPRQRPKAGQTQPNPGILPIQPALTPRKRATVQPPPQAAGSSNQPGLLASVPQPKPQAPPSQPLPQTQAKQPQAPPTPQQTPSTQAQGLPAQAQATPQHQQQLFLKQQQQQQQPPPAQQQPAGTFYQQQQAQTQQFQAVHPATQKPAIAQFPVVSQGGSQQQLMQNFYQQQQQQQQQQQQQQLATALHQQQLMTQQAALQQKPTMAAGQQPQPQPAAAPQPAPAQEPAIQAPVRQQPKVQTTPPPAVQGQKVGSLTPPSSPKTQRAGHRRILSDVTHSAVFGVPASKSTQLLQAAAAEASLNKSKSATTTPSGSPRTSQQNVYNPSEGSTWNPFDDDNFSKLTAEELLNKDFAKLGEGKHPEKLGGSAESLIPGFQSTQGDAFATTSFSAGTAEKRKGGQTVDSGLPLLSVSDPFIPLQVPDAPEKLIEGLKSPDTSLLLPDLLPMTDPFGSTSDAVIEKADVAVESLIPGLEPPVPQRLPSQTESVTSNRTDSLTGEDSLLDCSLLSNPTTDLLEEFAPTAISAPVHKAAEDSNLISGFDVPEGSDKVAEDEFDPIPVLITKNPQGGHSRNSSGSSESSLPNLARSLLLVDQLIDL", "test": "AAK1 Kinase Assay", "assay_type": "biochemical", "settings": "ATP 22 μM; 3 hours at room temperature", "units": {"IC50": "nM"}, "experimental": "The assays were performed in U-bottom 384-well plates. […] The reactions were initiated by the combination of bacterially expressed, GST-Xa-hAAK1 with substrates and test compounds. The reactions were incubated at room temperature for 3 hours and terminated by adding 60 μl of 35 mM EDTA buffer to each sample. The reactions were analyzed on the Caliper LabChip 3000 (Caliper, Hopkinton, Mass.) by electrophoretic separation of the fluorescent substrate and phosphorylated product. Inhibition data were calculated by comparison to EDTA quenched control reactions for 100% inhibition and vehicle-only reactions for 0% inhibition. […] Dose response curves were generated to determine the concentration required inhibiting 50% of kinase activity (IC50). Compounds were dissolved at 10 mM in dimethylsulfoxide (DMSO) and evaluated at eleven concentrations. IC50 values were derived by non-linear regression analysis.", "values": [{"smiles": "CC(C)n1nnc(-c2cccc(Nc3ncnn4ccc(C(=O)N(C)C)c34)c2)n1", "note": "[Example 101, 4-((3-(2-isopropyl-2H-tetrazol-5-yl)phenyl)amino)-N,N-dimethylpyrrolo[2,1-f][1,2,4]triazine-5-carboxamide]", "IC50": 687}, {"smiles": "Cc1ccn2ncnc(Nc3cccc(-c4noc(C(C)(C)CCl)n4)c3)c12", "note": "[Example 90, N-(3-(5-(1-chloro-2-methylpropan-2-yl)-1,2,4-oxadiazol-3-yl)phenyl)-5-methylpyrrolo[2,1-f][1,2,4]triazin-4-amine]", "IC50": 52}, {"smiles": "COCc1ccn2ncnc(Nc3cccc(-c4nnn(C(C)C)n4)c3)c12", "note": "[Example 100, N-(3-(2-isopropyl-2H-tetrazol-5-yl)phenyl)-5-(methoxymethyl)pyrrolo[2,1-f][1,2,4]triazin-4-amine]", "IC50": 54}, {"smiles": "CC(C)n1nnc(-c2cc(O)cc(Nc3ncnn4cccc34)c2)n1", "note": "[Example 84, 3-(2-isopropyl-2H-tetrazol-5-yl)-5-(pyrrolo[2,1-f][1,2,4]triazin-4-ylamino)phenol]", "IC50": 75}, {"smiles": "CCOC(=O)c1ccn2ncnc(Nc3cccc(-c4noc(C(C)C)n4)c3)c12", "note": "[Example 97, ethyl 4-((3-(5-isopropyl-1,2,4-oxadiazol-3-yl)phenyl)amino)pyrrolo[2,1-f][1,2,4]triazine-5-carboxylate]", "IC50": 883}, {"smiles": "CC(C)n1nnc(-c2cccc(NCc3ccn4ncnc(Nc5cccc(-c6nnn(C(C)C)n6)c5)c34)c2)n1", "note": "[Example 61, N-(3-(2-isopropyl-2H-tetrazol-5-yl)phenyl)-5-(((3-(2-isopropyl-2H-tetrazol-5-yl)phenyl)amino)methyl)pyrrolo[2,1-f][1,2,4]triazin-4-amine]", "IC50": 2580}, {"smiles": "Cn1ccc(-c2cccc(Nc3ncnn4ccc(CN5CCC(N)CC5)c34)c2)n1", "note": "[Example 12, 5-((4-aminopiperidin-1-yl)methyl)-N-(3-(1-methyl-1H-pyrazol-3-yl)phenyl)pyrrolo[2,1-f][1,2,4]triazin-4-amine]", "IC50": 446}, {"smiles": "CC(C)n1nnc(-c2cccc(Nc3ncnn4ccc(CN)c34)c2)n1", "note": "[Example 99, 5-(aminomethyl)-N-(3-(2-isopropyl-2H-tetrazol-5-yl)phenyl)pyrrolo[2,1-f][1,2,4]triazin-4-amine]", "IC50": 217}, {"smiles": "CCOC(=O)c1ccn2ncnc(Nc3cccc(-c4nnc(C(C)C)s4)c3)c12", "note": "[Example 94, ethyl 4-((3-(5-isopropyl-1,3,4-thiadiazol-2-yl)phenyl)amino)pyrrolo[2,1-f][1,2,4]triazine-5-carboxylate]", "IC50": 474}, {"smiles": "CC(C)(CN)c1nc(-c2cccc(Nc3ncnn4cccc34)c2)no1", "note": "[Example 82, N-(3-(5-(1-amino-2-methylpropan-2-yl)-1,2,4-oxadiazol-3-yl)phenyl)pyrrolo[2,1-f][1,2,4]triazin-4-amine]", "IC50": 67}, {"smiles": "CC(C)C[C@@H](N)C(=O)Nc1cccc(Nc2ncnn3ccc(C(=O)N4CCC(N)CC4)c23)c1", "note": "[Example 110, (R)-2-amino-N-(3-((5-(4-aminopiperidine-1-carbonyl)pyrrolo[2,1-f][1,2,4]triazin-4-yl)amino)phenyl)-4-methylpentanamide]", "IC50": 7710}, {"smiles": "CC(C)n1nnc(-c2cc(CO)cc(Nc3ncnn4cccc34)c2)n1", "note": "[Example 83, (3-(2-isopropyl-2H-tetrazol-5-yl)-5-(pyrrolo[2,1-f][1,2,4]triazin-4-ylamino)phenyl)methanol]", "IC50": 406}, {"smiles": "CNC(=O)c1ccn2ncnc(Nc3cccc(-c4nnn(C(C)C)n4)c3)c12", "note": "[Example 103, 4-((3-(2-isopropyl-2H-tetrazol-5-yl)phenyl)amino)-N-methylpyrrolo[2,1-f][1,2,4]triazine-5-carboxamide]", "IC50": 26}, {"smiles": "COc1cc(Nc2ncnn3ccc(C)c23)cc(-c2noc(C(C)C)n2)c1", "note": "[Example 92, N-(3-(5-isopropyl-1,2,4-oxadiazol-3-yl)-5-methoxyphenyl)-5-methylpyrrolo[2,1-f][1,2,4]triazin-4-amine]", "IC50": 1170}, {"smiles": "CC(C)n1nnc(-c2cc(O)cc(Nc3ncnn4ccc(CN5CCC(N)CC5)c34)c2)n1", "note": "[Example 36, 3-((5-((4-aminopiperidin-1-yl)methyl)pyrrolo[2,1-f][1,2,4]triazin-4-yl)amino)-5-(2-isopropyl-2H-tetrazol-5-yl)phenol]", "IC50": 3.3}]}, {"target": "GST-Xa-hAAK1 (Homo sapiens (Human), UniProt Q2M2I8)", "test": "AAK1 Kinase Assay", "assay_type": "biochemical", "settings": "ATP 22 μM; 3 hours at room temperature; listed as IC50 ranges", "units": {"IC50": "nM"}, "values": [{"smiles": "Cc1nnc(-c2cccc(Nc3ncnn4ccc(CN5CC6CNCC6C5)c34)c2)s1", "note": "(stereo not shown) [Example 20, 5-((hexahydropyrrolo[3,4-c]pyrrol-2(1H)-yl)methyl)-N-(3-(5-methyl-1,3,4-thiadiazol-2-yl)phenyl)pyrrolo[2,1-f][1,2,4]triazin-4-amine]", "IC50": "1000 to 5000"}, {"smiles": "CC(C)c1nnc(-c2cccc(Nc3ncnn4ccc(CN5CC[C@@H](N)[C@H](O)C5)c34)c2)s1", "note": "[Example 48, (3R,4R)-4-amino-1-((4-((3-(5-isopropyl-1,3,4-thiadiazol-2-yl)phenyl)amino)pyrrolo[2,1-f][1,2,4]triazin-5-yl)methyl)piperidin-3-ol]", "IC50": "10 to 100"}, {"smiles": "CC(CN)CNCc1ccn2ncnc(Nc3cccc(-c4nnc(C(C)C)s4)c3)c12", "note": "(stereo not shown) [Example 70, N1-((4-((3-(5-isopropyl-1,3,4-thiadiazol-2-yl)phenyl)amino)pyrrolo[2,1-f][1,2,4]triazin-5-yl)methyl)-2-methylpropane-1,3-diamine]", "IC50": "100 to 1000"}, {"smiles": "CC(C)n1nnc(-c2cccc(Nc3ncnn4ccc(CN5CCNCC5)c34)c2)n1", "note": "[Example 34, N-(3-(2-isopropyl-2H-tetrazol-5-yl)phenyl)-5-(piperazin-1-ylmethyl)pyrrolo[2,1-f][1,2,4]triazin-4-amine]", "IC50": "10 to 100"}, {"smiles": "CC(C)c1nnc(-c2cccc(Nc3ncnn4ccc(CN5CCC(N)CC5)c34)c2)s1", "note": "[Example 9, 5-((4-aminopiperidin-1-yl)methyl)-N-(3-(5-isopropyl-1,3,4-thiadiazol-2-yl)phenyl)pyrrolo[2,1-f][1,2,4]triazin-4-amine]", "IC50": "10 to 100"}, {"smiles": "CC(C)(C)c1nc(-c2cccc(Nc3ncnn4ccc(CN5CCC(N)CC5)c34)c2)no1", "note": "[Example 5, 5-((4-aminopiperidin-1-yl)methyl)-N-(3-(5-(tert-butyl)-1,2,4-oxadiazol-3-yl)phenyl)pyrrolo[2,1-f][1,2,4]triazin-4-amine]", "IC50": "10 to 100"}, {"smiles": "CC(C)n1nnc(-c2ccc(O)c(Nc3ncnn4ccc(CN5CCC(N)CC5)c34)c2)n1", "note": "[Example 38, 2-((5-((4-aminopiperidin-1-yl)methyl)pyrrolo[2,1-f][1,2,4]triazin-4-yl)amino)-4-(2-isopropyl-2H-tetrazol-5-yl)phenol]", "IC50": "1 to 10"}, {"smiles": "CC(C)c1nnc(-c2cccc(Nc3ncnn4ccc(CN5CCC(N)C5)c34)c2)s1", "note": "(stereo not shown) [Example 32, 5-((3-aminopyrrolidin-1-yl)methyl)-N-(3-(5-isopropyl-1,3,4-thiadiazol-2-yl)phenyl)pyrrolo[2,1-f][1,2,4]triazin-4-amine]", "IC50": "100 to 1000"}, {"smiles": "CNC1CCN(Cc2ccn3ncnc(Nc4cccc(-c5nnn(C(C)C)n5)c4)c23)CC1", "note": "[Example 42, N-(3-(2-isopropyl-2H-tetrazol-5-yl)phenyl)-5-((4-(methylamino)piperidin-1-yl)methyl)pyrrolo[2,1-f][1,2,4]triazin-4-amine]", "IC50": "10 to 100"}, {"smiles": "CC(C)n1nnc(-c2cccc(Nc3ncnn4ccc(CN5CC(C#N)C5)c34)c2)n1", "note": "[Example 64, 1-((4-((3-(2-isopropyl-2H-tetrazol-5-yl)phenyl)amino)pyrrolo[2,1-f][1,2,4]triazin-5-yl)methyl)azetidine-3-carbonitrile]", "IC50": "100 to 1000"}, {"smiles": "CC(C)c1nnc(-c2cccc(Nc3ncnn4ccc(CN5CCN(C)CC5)c34)c2)s1", "note": "[Example 55, N-(3-(5-isopropyl-1,3,4-thiadiazol-2-yl)phenyl)-5-((4-methylpiperazin-1-yl)methyl)pyrrolo[2,1-f][1,2,4]triazin-4-amine]", "IC50": "100 to 1000"}, {"smiles": "CC(C)c1nc(-c2ccc(F)c(Nc3ncnn4ccc(CN5CCC(N)CC5)c34)c2)no1", "note": "[Example 52, 5-((4-aminopiperidin-1-yl)methyl)-N-(2-fluoro-5-(5-isopropyl-1,2,4-oxadiazol-3-yl)phenyl)pyrrolo[2,1-f][1,2,4]triazin-4-amine]", "IC50": "100 to 1000"}, {"smiles": "Cc1nnc(-c2cccc(Nc3ncnn4ccc(CN5CCC(N)CC5)c34)c2)s1", "note": "[Example 17, 5-((4-aminopiperidin-1-yl)methyl)-N-(3-(5-methyl-1,3,4-thiadiazol-2-yl)phenyl)pyrrolo[2,1-f][1,2,4]triazin-4-amine]", "IC50": "100 to 1000"}, {"smiles": "CCCc1nnc(-c2cccc(Nc3ncnn4ccc(CN5CCC(N)CC5)c34)c2)s1", "note": "[Example 21, 5-((4-aminopiperidin-1-yl)methyl)-N-(3-(5-propyl-1,3,4-thiadiazol-2-yl)phenyl)pyrrolo[2,1-f][1,2,4]triazin-4-amine]", "IC50": "10 to 100"}, {"smiles": "CC(C)n1nnc(-c2cc(Nc3ncnn4ccc(CN5CCC(N)CC5)c34)cc(C(F)F)c2)n1", "note": "[Example 72, 5-((4-aminopiperidin-1-yl)methyl)-N-(3-(difluoromethyl)-5-(2-isopropyl-2H-tetrazol-5-yl)phenyl)pyrrolo[2,1-f][1,2,4]triazin-4-amine]", "IC50": "10 to 100"}, {"smiles": "CC(C)n1nnc(-c2cccc(Nc3ncnn4ccc(CN5[C@@H]6CC[C@H]5CN(C)C6)c34)c2)n1", "note": "[Example 60, N-(3-(2-isopropyl-2H-tetrazol-5-yl)phenyl)-5-(((1R,5S)-3-methyl-3,8-diazabicyclo[3.2.1]octan-8-yl)methyl)pyrrolo[2,1-f][1,2,4]triazin-4-amine]", "IC50": "100 to 1000"}, {"smiles": "CC(C)c1nnc(-c2cccc(Nc3ncnn4ccc(CN5CCNCC5)c34)c2)s1", "note": "[Example 35, N-(3-(5-isopropyl-1,3,4-thiadiazol-2-yl)phenyl)-5-(piperazin-1-ylmethyl)pyrrolo[2,1-f][1,2,4]triazin-4-amine]", "IC50": "100 to 1000"}, {"smiles": "CC(C)C[C@@H](N)C(=O)Nc1cccc(Nc2ncnn3ccc(CN4CCC(N)CC4)c23)c1", "note": "[Example 67, (R)-2-amino-N-(3-((5-((4-aminopiperidin-1-yl)methyl)pyrrolo[2,1-f][1,2,4]triazin-4-yl)amino)phenyl)-4-methylpentanamide]", "IC50": "100 to 1000"}, {"smiles": "CC(C)c1nc(-c2cc(F)cc(Nc3ncnn4ccc(CN5CCC(N)CC5)c34)c2)no1", "note": "[Example 46, 5-((4-aminopiperidin-1-yl)methyl)-N-(3-fluoro-5-(5-isopropyl-1,2,4-oxadiazol-3-yl)phenyl)pyrrolo[1,2-f][1,2,4]triazin-4-amine]", "IC50": "10 to 100"}]}]}
